Assay results published in patent publication US20250163009A1, “BENZOTHIA(DIA)ZEPINE COMPOUNDS FOR TREATMENT OF HBV AND HDV” (Assembly Biosciences, Inc., priority 2022, published 2025).

Tested on: HBV
Assay: HepG2-NTCP infection protocol, HBeAg quantification by ECL-ELISA
Format: cell-based
Details: Hepatitis B virus, HepG2-NTCP cells infected with HBV at MOI 50; compound 24 hours, then 72 hours; HBeAg in supernatant
Method: HepG2 cells expressing the sodium taurocholate cotransporting polypeptide (HepG2-NTCP) were maintained in culture using HepG2-NTCP growth medium (DMEM (HyClone, Cat #SH30243.02) supplemented with 10% FBS, 150 μg/mL G418 (Alfa Aesar, Cat #J62671), 50 U/mL penicillin-streptomycin (Invitrogen, Cat #15140-122), and 0.5 μg/mL blasticidin (Sigma, Cat #15205)). Prior to infection, the cells were washed twice with 1×DPBS (Invitrogen, Cat #14190-136) and treated with 3 mL of 0.05% trypsin (Invitrogen, Cat #25200-056) to dissociate the cells. Following dissociation, 10 mL of HepG2-NTCP growth medium was added to the cells to neutralize the trypsin and the cells were then centrifuged at 1,300 rpm for 5 minutes. Following centrifugation, the cells were resuspended in 10 mL of HepG2-NTCP growth medium, counted, and then centrifuged at 1,300 rpm for 5 minutes. The cell pellet was resuspended in DMEM supplemented with 5% FBS, 50 U/mL penicillin-streptomycin, 4% PEG-8000 (Hamilton Research, Cat #HR2-515), and 1% DMSO (Sigma, Cat #D4540) to a density of 5.6×10^5 cells/mL and infected with HBV at an MOI of 50. Immediately after infection, 90 μL of the cell/HBV mixture was added to a 96-well plate containing 10 μL of compound and incubated at 37° C. for 24 hours (2% final DMSO concentration). After the incubation, the infection media was removed and replaced with DMEM supplemented with 5% FBS, 50 U/mL penicillin-streptomycin, and 1% DMSO and incubated for an additional 72 hours. At the end of the incubation, the plates were spun at 1,800 rpm for 8 minutes and the supernatant was removed for HBeAg quantification using electrochemiluminescence enzyme-linked immunosorbent assays (ECL-ELISA).
To conduct the HBeAg ECL-ELISA, Lumitrack high-binding 96-well plates (Greiner, Cat #655074) were treated with 625 ng/mL HBeAg mAb (Biocheck, Cat #70426) in 1×DPBS for 2 hours at 25° C. with shaking. The HBeAg mAb solution was then removed and the plates treated with 1×DPBS containing 0.5% bovine serum albumin (BSA) (Sigma, Cat #A7030-100 g) for 2 hours at 25° C. with shaking. The HBeAg-coated plates were then washed 4 times with 1×DPBS containing 0.05% Tween 20 (DPBS-T) (Thermo Fisher Scientific, Cat #J61544-K2). Following the wash, 90 μL of HRP-conjugated antibody (Fitzgerald, Cat #61-H10K), diluted 1:8,000 in 1×DPBS-T containing 0.5% BSA, was added to the HBeAg-coated plates along with 10 μL of sample. The plates were then incubated for 2 hours at 25° C. with shaking. Following the incubation, the sample was then removed and 200 μL of 1×PBS-T was added and the plates were incubated for 10 minutes at 25° C. with shaking. The plates were then washed 6 times with 1×PBS-T and blotted dry. 80 μL of ECL substrate (Millipore, Cat #WBKLS0500) was then added to the plate and the luminescence was measured using a Tecan M1000 Pro plate reader.

EC50: < 100 nM
Structure (SMILES): CCCCC1CN(c2ccc(N3CCCC3)cc2)c2cc(SC)c(O/C=C(\F)C(=O)O)cc2S(=O)(=O)N1C (stereo not shown) [Example 11]
